Assay results reported in ChEMBL document CHEMBL1275577, “Study of the in vitro activities of rifaximin and comparator agents against 536 anaerobic intestinal bacteria from the perspective of potential utility in pathology involving bowel flora” (Antimicrob Agents Chemother, 2009).

Tests used:
Type in all cases: functional
Ruminococcus gnavus = assay: Antimicrobial activity against Ruminococcus gnavus by Wadsworth agar dilution method in presence of beta-lactamase inhibitor Sulbactam; conditions: Mediterraneibacter gnavus
Peptoniphilus harei = assay: Antimicrobial activity against Peptoniphilus harei by Wadsworth agar dilution method in presence of beta-lactamase inhibitor Sulbactam
[1] = Antimicrobial activity against Bifidobacterium pseudocatenulatum by Wadsworth agar dilution method in presence of beta-lactamase inhibitor Sulbactam
Anaerococcus tetradius = assay: Antimicrobial activity against Anaerococcus tetradius by Wadsworth agar dilution method in presence of beta-lactamase inhibitor Sulbactam
Clostridium disporicum = assay: Antimicrobial activity against Clostridium disporicum by Wadsworth agar dilution method in presence of beta-lactamase inhibitor Sulbactam
Prevotella disiens = assay: Antimicrobial activity against Prevotella disiens by Wadsworth agar dilution method in presence of beta-lactamase inhibitor Sulbactam
Finegoldia magna = assay: Antimicrobial activity against Finegoldia magna by Wadsworth agar dilution method in presence of beta-lactamase inhibitor Sulbactam
Clostridium hathewayi = assay: Antimicrobial activity against Clostridium hathewayi by Wadsworth agar dilution method in presence of beta-lactamase inhibitor Sulbactam; conditions: Hungatella hathewayi
Atopobium minutum = assay: Antimicrobial activity against Atopobium minutum by Wadsworth agar dilution method in presence of beta-lactamase inhibitor Sulbactam
[2] = test system: Propionibacterium propionicum; assay: Antimicrobial activity against Propionibacterium propionicum by Wadsworth agar dilution method in presence of beta-lactamase inhibitor Sulbactam; conditions: Arachnia propionica
[3] = test system: Ruminococcus flavefaciens; assay: Antimicrobial activity against Ruminococcus flavefaciens by Wadsworth agar dilution method in presence of beta-lactamase inhibitor Sulbactam
Bifidobacterium longum = assay: Antimicrobial activity against Bifidobacterium longum by Wadsworth agar dilution method in presence of beta-lactamase inhibitor Sulbactam
Bifidobacterium bifidum = assay: Antimicrobial activity against Bifidobacterium bifidum by Wadsworth agar dilution method in presence of beta-lactamase inhibitor Sulbactam
Ruminococcus obeum = assay: Antimicrobial activity against Ruminococcus obeum by Wadsworth agar dilution method in presence of beta-lactamase inhibitor Sulbactam; conditions: Blautia obeum
Clostridium nexile = assay: Antimicrobial activity against Clostridium nexile by Wadsworth agar dilution method in presence of beta-lactamase inhibitor Sulbactam; conditions: Faecalimonas nexilis
[4] = test system: Paraclostridium bifermentans; assay: Antimicrobial activity against Clostridium bifermentans by Wadsworth agar dilution method in presence of beta-lactamase inhibitor Sulbactam
Blautia luti = assay: Antimicrobial activity against Ruminococcus luti by Wadsworth agar dilution method in presence of beta-lactamase inhibitor Sulbactam
Propionibacterium avidum = assay: Antimicrobial activity against Propionibacterium avidum by Wadsworth agar dilution method in presence of beta-lactamase inhibitor Sulbactam; conditions: Cutibacterium avidum
Clostridium bartlettii = assay: Antimicrobial activity against Clostridium bartlettii by Wadsworth agar dilution method in presence of beta-lactamase inhibitor Sulbactam; conditions: Intestinibacter bartlettii
Clostridium septicum = assay: Antimicrobial activity against Clostridium septicum by Wadsworth agar dilution method in presence of beta-lactamase inhibitor Sulbactam
Eubacterium biforme = assay: Antimicrobial activity against Eubacterium biforme by Wadsworth agar dilution method in presence of beta-lactamase inhibitor Sulbactam; conditions: Holdemanella biformis
Bifidobacterium dentium = assay: Antimicrobial activity against Bifidobacterium dentium by Wadsworth agar dilution method in presence of beta-lactamase inhibitor Sulbactam
[Clostridium] innocuum = Antimicrobial activity against Clostridium innocuum by Wadsworth agar dilution method in presence of beta-lactamase inhibitor Sulbactam
Clostridium bolteae = assay: Antimicrobial activity against Clostridium bolteae by Wadsworth agar dilution method in presence of beta-lactamase inhibitor Sulbactam; conditions: Enterocloster bolteae
[5] = test system: Bifidobacterium pseudolongum; assay: Antimicrobial activity against Bifidobacterium pseudolongum by Wadsworth agar dilution method in presence of beta-lactamase inhibitor Sulbactam
Clostridium fallax = assay: Antimicrobial activity against Clostridium fallax by Wadsworth agar dilution method in presence of beta-lactamase inhibitor Sulbactam
[6] = test system: Peptoniphilus asaccharolyticus; assay: Antimicrobial activity against Peptoniphilus asaccharolyticus by Wadsworth agar dilution method in presence of beta-lactamase inhibitor Sulbactam
Schaalia odontolytica = assay: Antimicrobial activity against Actinomyces odontolyticus by Wadsworth agar dilution method in presence of beta-lactamase inhibitor Sulbactam
[7] = test system: Limosilactobacillus reuteri; assay: Antimicrobial activity against Lactobacillus reuteri by Wadsworth agar dilution method in presence of beta-lactamase inhibitor Sulbactam
Clostridium scindens = assay: Antimicrobial activity against Clostridium scindens by Wadsworth agar dilution method in presence of beta-lactamase inhibitor Sulbactam
Prevotella intermedia = assay: Antimicrobial activity against Prevotella intermedia by Wadsworth agar dilution method in presence of beta-lactamase inhibitor Sulbactam
Ruminococcus lactaris = assay: Antimicrobial activity against Ruminococcus lactaris by Wadsworth agar dilution method in presence of beta-lactamase inhibitor Sulbactam
[8] = test system: Clostridium lactatifermentans; assay: Antimicrobial activity against Clostridium lactatifermentans by Wadsworth agar dilution method in presence of beta-lactamase inhibitor Sulbactam; conditions: Anaerotignum lactatifermentans

CC1(C)S[C@@H]2[C@H](NC(=O)[C@H](N)c3ccccc3)C(=O)N2[C@H]1C(=O)O [AMPICILLIN]
MIC (Ruminococcus gnavus): 0.25 mg/L
MIC50 (Ruminococcus gnavus): 0.25 mg/L
MIC90 (Ruminococcus gnavus): 2 mg/L
MIC (Peptoniphilus harei): 0.25 mg/L
MIC50 (Peptoniphilus harei): 0.25 mg/L
MIC90 (Peptoniphilus harei): 2 mg/L
MIC [1]: 0.25 mg/L
MIC50 [1]: 0.25 mg/L
MIC90 [1]: 2 mg/L
MIC (Anaerococcus tetradius): 0.25 mg/L
MIC50 (Anaerococcus tetradius): 0.25 mg/L
MIC90 (Anaerococcus tetradius): 2 mg/L
MIC (Clostridium disporicum): 0.25 mg/L
MIC50 (Clostridium disporicum): 0.25 mg/L
MIC90 (Clostridium disporicum): 1 mg/L
MIC50 (Prevotella disiens): 0.5 mg/L
MIC90 (Prevotella disiens): 4 mg/L
MIC (Finegoldia magna): 0.25 mg/L
MIC50 (Finegoldia magna): 0.25 mg/L
MIC90 (Finegoldia magna): 2 mg/L
MIC50 (Clostridium hathewayi): 2 mg/L
MIC90 (Clostridium hathewayi): 2 mg/L
MIC (Atopobium minutum): 0.25 mg/L
MIC50 (Atopobium minutum): 0.25 mg/L
MIC90 (Atopobium minutum): 2 mg/L
MIC [2]: 0.25 mg/L
MIC50 [2]: 0.25 mg/L
MIC90 [2]: 2 mg/L
MIC [3]: 0.25 mg/L
MIC50 [3]: 0.25 mg/L
MIC90 [3]: 2 mg/L
MIC (Bifidobacterium longum): 0.25 mg/L
MIC50 (Bifidobacterium longum): 0.25 mg/L
MIC90 (Bifidobacterium longum): 2 mg/L
MIC (Bifidobacterium bifidum): 0.25 mg/L
MIC50 (Bifidobacterium bifidum): 0.25 mg/L
MIC90 (Bifidobacterium bifidum): 2 mg/L
MIC (Ruminococcus obeum): 0.25 mg/L
MIC50 (Ruminococcus obeum): 0.25 mg/L
MIC90 (Ruminococcus obeum): 2 mg/L
MIC (Clostridium nexile): 0.25 mg/L
MIC50 (Clostridium nexile): 0.25 mg/L
MIC90 (Clostridium nexile): 1 mg/L
MIC [4]: 0.25 mg/L
MIC50 [4]: 0.25 mg/L
MIC90 [4]: 1 mg/L
MIC (Blautia luti): 0.25 mg/L
MIC50 (Blautia luti): 0.25 mg/L
MIC90 (Blautia luti): 2 mg/L
MIC (Propionibacterium avidum): 0.25 mg/L
MIC50 (Propionibacterium avidum): 0.25 mg/L
MIC90 (Propionibacterium avidum): 2 mg/L
MIC (Clostridium bartlettii): 0.25 mg/L
MIC50 (Clostridium bartlettii): 0.25 mg/L
MIC90 (Clostridium bartlettii): 1 mg/L
MIC (Clostridium septicum): 0.25 mg/L
MIC50 (Clostridium septicum): 0.25 mg/L
MIC90 (Clostridium septicum): 1 mg/L
MIC (Eubacterium biforme): 0.25 mg/L
MIC50 (Eubacterium biforme): 0.25 mg/L
MIC90 (Eubacterium biforme): 2 mg/L
MIC (Bifidobacterium dentium): 0.25 mg/L
MIC50 (Bifidobacterium dentium): 0.25 mg/L
MIC90 (Bifidobacterium dentium): 2 mg/L
MIC ([Clostridium] innocuum): 0.25 mg/L
MIC50 ([Clostridium] innocuum): 0.25 mg/L
MIC90 ([Clostridium] innocuum): 0.5 mg/L
MIC (Clostridium bolteae): 0.25 mg/L
MIC50 (Clostridium bolteae): 0.25 mg/L
MIC90 (Clostridium bolteae): 1 mg/L
MIC [5]: 0.25 mg/L
MIC50 [5]: 0.25 mg/L
MIC90 [5]: 2 mg/L
MIC (Clostridium fallax): 0.25 mg/L
MIC50 (Clostridium fallax): 0.25 mg/L
MIC90 (Clostridium fallax): 1 mg/L
MIC [6]: 0.25 mg/L
MIC50 [6]: 0.25 mg/L
MIC90 [6]: 2 mg/L
MIC (Schaalia odontolytica): 0.25 mg/L
MIC50 (Schaalia odontolytica): 0.25 mg/L
MIC90 (Schaalia odontolytica): 2 mg/L
MIC [7]: 0.25 mg/L
MIC50 [7]: 0.25 mg/L
MIC90 [7]: 2 mg/L
MIC (Clostridium scindens): 0.25 mg/L
MIC50 (Clostridium scindens): 0.25 mg/L
MIC90 (Clostridium scindens): 1 mg/L
MIC50 (Prevotella intermedia): 0.5 mg/L
MIC90 (Prevotella intermedia): 4 mg/L
MIC (Ruminococcus lactaris): 0.25 mg/L
MIC50 (Ruminococcus lactaris): 0.25 mg/L
MIC90 (Ruminococcus lactaris): 2 mg/L
MIC [8]: 0.25 mg/L
MIC50 [8]: 0.25 mg/L
MIC90 [8]: 1 mg/L
